Legend:
[1] = test system: Calu3 cells infected with influenza virus A/Puerto Rico/8/34 (H1N1); assay: Antibody staining and confocal laser-scanning microscopy of apical NKA localization; type: cell-based, human; details: PR8-infected Calu3 cells treated with ROCK inhibitor, 20 h p.i.
Description: In order to obtain highly polarized Calu3 cells, the cell monolayer in a 175 cm^2 tissue culture flask grown to 50% confluence was washed once with PBS −/− and treated with Trypsin-EDTA. Cells were resuspended in 10 ml culture medium and centrifuged for 15 min at 300×g, 24° C. Supernatant was discarded and cells were resuspended in 5 ml of culture medium. 30 μl of cell suspension were mixed with 30 μl of 0.4% trypan blue dye and cell concentration was calculated in Neubauer chamber according manufacturer's instruction. Cells were dilute to a concentration of 2×10^6 viable cells/ml in Calu3 culture medium and 250 μl/125 μl of the cell suspension containing 0.5×10^6/0.25×10^6 viable cells were placed to the apical compartment of each Transwells® insert in a 12/24 well plate. 1/0.3 ml of Calu-3 culture medium was added into the basolateral compartments, avoiding the introduction of air bubbles and cells were cultivated at 37° C., 5% CO2. For the cells grown under the Liquid-Liquid Interface (LLI) condition, medium was replaced in both compartments each second day. For Air-Liquid Interface (ALI), culture medium was aspirated from the apical compartment on the day two, whereas medium was replaced every 2 days in the basolateral compartments.
For immunofluorescence assay cells were washed ones with PBS+/+ and fixed with or without extra permeabilization at the indicated time points. […]

[2] = test system: polarized Calu3 cells infected with influenza virus A/Puerto Rico/8/34 (H1N1); assay: Vectorial water transport (FITC-dextran) over polarized Calu3 cells; type: cell-based, human
[3] = test system: Calu3 cells infected with influenza virus A/Puerto Rico/8/34; assay: Coomassie staining of confluent polarized Calu3 cells (virus-induced epithelial cell damage); type: cell-based; details: 5 μM, MOI=5, Coomassie 24 h p.i.
[4] = test system: IAV A/Puerto Rico/8/32 (H1N1); assay: Virus titer of lung homogenizates (foci assay); type: in vivo, mice; details: 10 mg/kg 1×daily for 6 days, 500 PFU/mouse, 7th day p.i., n=3
Description: PR8: Virus titer of lung homogenizates from mice infected with IAV A/Puerto Rico/8/32 (H1N1, 500 PFU/Mouse) were infected (7th day p.i.).
For the foci forming assay, MDCK II cells were seeded in 96-well plates at a concentration of 3×10^6 cells/plate. The next day, 10-fold dilutions in duplicates (from 10^−1 to 10^−8) in PBS+/+/BA/PS was prepared from each virus sample in U-shaped 96-well. Importantly, during the preparation of the dilutions the pipet tips were changed after each dilution step. The MDCK II cells in the 96-well plate(s) were washed once with PBS+/+. […] 1 hour later, cells again were washed with 400 μl of washing buffer and 40 μl 3-Amino-9-ethylcarbazole (AEC)-staining buffer (1×AEC diluted N—N-dimethylformamide in acetate buffer (50 mM ammonium acetate, 8.8 mM H202) were added to each well. Following incubation for 30 min at 37° C. until foci could be detected, the staining buffer was removed and cells were washed twice with dH2O. Air-dried plates were scanned by using the Epson Perfection V500 Photo scan (Epson) at 1200 dpi and total number of foci was determined per well. Since Avicel-medium has a high viscosity that prevents diffusion of virus particles in surrounding media, virus can spread only from one cell to other forming foci. […]

[5] = test system: IAV A/Puerto Rico/8/32 (H1N1); assay: Body weight of infected mice; type: in vivo, C57BL/6 mice; details: 10 mg/kg 1×daily in saline solution, 500 PFU/mouse, 7 days
Description: PR8: Body weight of mice infected with IAV A/Puerto Rico/8/32 (H1N1, 500 PFU/mouse). […] The experiment was planned for 7 days only. Afterwards the mice were euthanized for ethical reasons.
All animal experiments were performed according to the latest guidelines of the “Federation of European Laboratory Animal Science Associations (FELASA)” and approved by the local committee of the Max-Planck Laboratory for Heart & Lung Research Instituto de Investigación en Biomedicina de Buenos Aires (IBioBA). Six-week-old BALB/c mice (n=5 per group) were infected by intra-tracheal inoculation of 500 plaque-forming units (pfu)/mouse of PR8 in a volume of 30 μl. […] As a control IP injection of sterile PBS −/− were applied. Body weight was monitored every day until day 8 p.i.. On the day 7 after treatment start (=day 8 p.i.) mice were sacrificed by an overdose of isoflurane.

[6] = test system: IAV A/Puerto Rico/8/32 (H1N1); assay: Lung histology (Hematoxilin/Eosin) and nuclear count quantification of infiltrates; type: in vivo; details: 10 mg/kg 1×daily for 6 days, 5 mice, 7th day p.i., Aperio nuclear count

| SMILES | cell viability of infected Calu3 cells (Calu3 cells) | cell viability of non-infected Calu3 cells (Calu3 cells; 5 μM, 0, 6, 16, 24 hours, mock set to 100%) | apical sodium-potassium-ATPase (NKA) localization [1] | vectorial water transport (VWT) [2] | virus-induced epithelial cell damage (cytopathic effect) [3] | virus titer in the lungs of infected mice [4] | body weight loss of infected mice [5] | number of infiltrates (quantification, total cell count/mm2) [6] |
| --- | --- | --- | --- | --- | --- | --- | --- | --- |
| O=C(NCc1cccc(O)c1)Nc1nc(-c2ccncc2)cs1 [Rho XIII, 1-(3-Hydroxybenzyl)-3-(4-(pyridin-4-yl)thiazol-2-yl)urea] | increases cell viability | increases cell viability | prevents apical sodium-potassium-ATPase (NKA) localization | improves vectorial water transport | reduces virus-induced epithelial cell damage in vitro |  |  |  |
| Cl.O=S(=O)(c1cccc2cnccc12)N1CCCNCC1 [Fasudil HCl, Isoquinoline 5-[(hexahydro-1H-1,4-diazepin-1-yl)sulfonyl]-N-(5-Isoquinolinesulfonyl)-1,4-per-hydrodiazepine] |  |  |  |  |  | reduces the virus titer in the lungs of infected mice | tendential reduction of the body weight loss | reduces the number of infiltrates |
